# Source: patent EP0352863A2, “1,4-Dihydropyridine dicarboxylic acid derivatives” (ZAMBON GROUP S.p.A., priority 1988, dated 1990)
# Like-named read-outs stand apart in the source and are kept apart here.
# What was measured:
# beta₂ lung receptor = target: T1, beta₂ lung receptor (Mus musculus, UniProt P18762); experiment: binding test, beta2 lung receptors
# T1 construct: Ki (nM) mouse lung beta₂ receptors; from tissue; host or cells: mouse lung
# Text: (§1) Moreover, the beta-blocking activity has been tested by means of the binding test both towards beta₁ heart receptors and towards beta₂ lung receptor in mouse according to the methods described in the J. Biol. Chem., 253, 5090, (1978) and in the Br. j. Pharmacol., 68, 57, (1980).
# beta₁ heart receptors = target: T2, beta₁ heart receptors (Mus musculus, UniProt P34971); experiment: binding test, beta1 heart receptors
# T2 construct: from tissue; host or cells: mouse heart
# Text: as §1
# rabbit mesenteric artery = experiment: calcium-antagonist activity, rabbit mesenteric artery test (antagonism of 3 mM Ca++ in Krebs depolarizer); details: Ca++ submaximal concentration 3mM, read-out: IC₅₀
# Experimental: Calcium-antagonist activity of the compounds of formula I has been tested as capability of antagonizing the effect of Ca⁺⁺ submaximal concentrations (3mM) on preparations of rabbit mesenteric artery in Krebs depolarizer, prepared according to Towart "J. Cardiovasc. Pharmacol. 4, 895, (1982)".
# The compounds of this invention, tested as calcium antagonist agents on the rabbit mesnteric artery show an IC₅₀ of from 10 to 200 (nM); Ki affinity for beta₁ receptors is of from 30 to 2000 (nM) and for beta₂ receptors is of from 20 to 5000 (nM).
# anesthetized dog = experiment: heart rate and mean arterial pressure in the anesthetized dog; format: in vivo; details: doses of from 100 to 400 ug/kg
# Experimental: The compounds of formula I produce antihypertensive effects in mouse and dog with concomitant reduction of the heart rate.
# For example, in the anesthetized dog, compound 1 caused a heart rate reduction of from 9 to 23% and a reduction of the mean arterial pressure of from 3 to 15% at doses of from 100 to 400 ug/kg; at the same doses diastereoisomer A caused a heart rate reduction of from 17 to 30% and a mean arterial pressure reduction of from 12 to 25%, respectively.
# T2 sequence (P34971 whole entry): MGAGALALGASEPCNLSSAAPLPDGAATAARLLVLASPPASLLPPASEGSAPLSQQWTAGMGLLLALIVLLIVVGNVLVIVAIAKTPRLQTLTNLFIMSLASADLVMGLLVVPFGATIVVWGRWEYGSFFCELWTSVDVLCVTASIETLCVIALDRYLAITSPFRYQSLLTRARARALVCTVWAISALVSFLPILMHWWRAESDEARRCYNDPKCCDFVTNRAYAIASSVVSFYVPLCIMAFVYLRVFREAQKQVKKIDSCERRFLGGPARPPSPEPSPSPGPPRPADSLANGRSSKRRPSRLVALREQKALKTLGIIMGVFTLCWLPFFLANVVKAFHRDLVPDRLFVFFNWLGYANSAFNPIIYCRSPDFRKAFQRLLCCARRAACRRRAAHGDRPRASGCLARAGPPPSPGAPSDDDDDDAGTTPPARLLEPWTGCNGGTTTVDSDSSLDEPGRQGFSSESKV
# T1 sequence (P18762 whole entry): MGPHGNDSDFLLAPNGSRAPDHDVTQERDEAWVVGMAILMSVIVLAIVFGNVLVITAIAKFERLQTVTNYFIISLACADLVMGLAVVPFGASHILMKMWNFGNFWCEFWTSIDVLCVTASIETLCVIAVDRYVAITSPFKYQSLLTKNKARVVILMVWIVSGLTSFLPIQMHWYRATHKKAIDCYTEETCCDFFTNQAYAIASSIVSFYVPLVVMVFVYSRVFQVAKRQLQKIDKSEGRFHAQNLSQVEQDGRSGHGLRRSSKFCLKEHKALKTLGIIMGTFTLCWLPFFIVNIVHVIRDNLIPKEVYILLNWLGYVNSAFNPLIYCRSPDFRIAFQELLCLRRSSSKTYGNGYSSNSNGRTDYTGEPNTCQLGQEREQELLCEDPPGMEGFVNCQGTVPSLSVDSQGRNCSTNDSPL
Ki (beta₂ lung receptor) [nM],Ki (beta₁ heart receptors) [nM],IC50 (rabbit mesenteric artery) [nM],IC50 (rabbit mesenteric artery; Oryctolagus cuniculus) [nM],SMILES,duration of hypotensive effect and bradycardia (anesthetized dog)
2050,600,15,,"CCOC(=O)C1=C(C)NC(CN(C)CC(C)(C)NCC(O)COc2ccccc2OC)=C(C(=O)OCC)C1c1cccc([N+](=O)[O-])c1 (single isomer, unassigned) [diastereoisomer A]",lasting over five hours
560,165,120,,"CCOC(=O)C1=C(C)NC(CN(C)CC(C)(C)NCC(O)COc2ccccc2OC)=C(C(=O)OCC)C1c1cccc([N+](=O)[O-])c1 (single isomer, unassigned) [diastereoisomer B]",
,,,47,"CCOC(=O)C1=C(C)NC(CN(C)CC(C)(C)NCC(O)COc2ccccc2OC)=C(C(=O)OCC)C1c1cccc([N+](=O)[O-])c1 (stereo not shown) [Compound 1, ethyl 1,4-dihydro-6-methyl-2-(N-methyl-N-(2-(2-hydroxy-3-(2-methoxyphenoxy)-propylamino)-2-methylpropyl)aminomethyl)-4-(3-nitrophenyl)-3,5-pyridinedicarboxylate]",
18000,840,,,"CC(C)NCC(O)COc1ccc(CC(N)=O)cc1 (stereo not shown) [atenolol, reference compound]",
